Test results taken from ChEMBL document CHEMBL6153121, “Anti-Inflammatory Dimeric and Trimeric Flavonoids from the Roots ofPistacia weinmannifolia” (J Nat Prod, 2025).
Activity calls are given as the source filed them. The rule behind the calls is not given here.

Tests used:
NCI-H292 [1] = assay: Cytotoxicity against human NCI-H292 cells assessed as redcution in cell viability at 0.25 to 1 uM incubated for 24 hrs in presence of PMA by CCK-8 assay; assay type: toxicity, cell-based; conditions: nci-h292, 24 h, dose 0.25-1 µM
NCI-H292 [2] = assay: Antiinflammatory activity against PMA-stimulated human NCI-H292 cells assessed as reduction in MUC5AC secretion at 1 uM incubated for 24 hrs by ELISA; assay type: functional, cell-based
NCI-H292 [3] = assay: Antiinflammatory activity against PMA-stimulated human NCI-H292 cells assessed as reduction in IL-8 secretion at 1 uM incubated for 24 hrs by ELISA; assay type: functional, cell-based

## O=C(/C=C/c1ccc(Oc2ccc([C@H]3Oc4cc(O)ccc4C(=O)[C@@H]3[C@@H]3C(=O)c4ccc(O)cc4O[C@H]3c3ccc(O)c(O)c3)cc2)cc1)c1ccc(O)cc1O
NCI-H292 [1]
  Activity: Toxic

## O=C(/C=C/c1ccc(Oc2cc(C(=O)/C=C/c3ccc(O)cc3)c(O)cc2O)cc1)c1ccc(O)cc1O
NCI-H292 [2]
  Activity: Active; Effectively Inhibited The Secretion
NCI-H292 [3]
  Activity: Active; Effectively Inhibited The Secretion

## O=C(/C=C/c1ccc(O)cc1)c1ccc2c(c1O)[C@H](C(=O)c1ccc(O)cc1O)[C@@H](c1ccc(O)cc1)O2
NCI-H292 [2]
  Activity: Active
NCI-H292 [3]
  Activity: Active

## O=C1C[C@@H](c2ccc(O)cc2)Oc2cc(Oc3ccc([C@@H]4[C@@H](C(=O)c5ccc(O)cc5O)[C@H](C(=O)c5ccc(O)cc5O)[C@H]4c4ccc(O)cc4)cc3O)ccc21
NCI-H292 [2]
  Activity: Active
NCI-H292 [3]
  Activity: Active

## O=C(/C=C/c1ccc(Oc2ccc(/C=C/C(=O)c3ccc(O)cc3O)cc2O)cc1)c1ccc(O)cc1O
NCI-H292 [2]
  Activity: Active; Effectively Inhibited The Secretion
NCI-H292 [3]
  Activity: Active; Effectively Inhibited The Secretion

## O=C(/C=C/c1ccc(Oc2ccc([C@@H]3[C@@H](C(=O)c4ccc(O)cc4O)[C@H](C(=O)c4ccc(O)cc4O)[C@H]3c3ccc(O)cc3)cc2O)cc1)c1ccc(O)cc1O
NCI-H292 [2]
  Activity: Active; Effectively Inhibited The Secretion
NCI-H292 [3]
  Activity: Active; Effectively Inhibited The Secretion

## O=C(/C=C/c1ccc(O)c(-c2cc(C(=O)/C=C/c3ccc(O)cc3)c(O)cc2O)c1)c1ccc(O)cc1O
NCI-H292 [2]
  Activity: Active
NCI-H292 [3]
  Activity: Active

## O=C(/C=C/c1ccc(Oc2c(O)ccc(C(=O)/C=C/c3ccc(O)cc3)c2O)cc1)c1ccc(O)cc1
NCI-H292 [2]
  Activity: Active
NCI-H292 [3]
  Activity: inactive
